Results: patent publication US8841277B2, “Methods for treating non-small cell lung cancer using 5-azacytidine” (Celgene Corporation, priority 2009, dated 2014)
Entries after “also recorded” stand apart in the source; their conditions may differ.

What was measured:
[1] = tested on: DNMT1; assay: DNMT1 protein depletion, H460; format: cell-based; details: for DNMT1 protein levels: dose range
Method: (§1) For western analyses of protein levels, cells were washed with PBS and lysed with RIPA buffer (Cell Signaling Technology, Inc.; Danvers, Mass.) containing 350 mM NaCl and 0.1% SDS. Cell lysates were sonicated with two 5-second bursts under low amplitude (20%) using the Digital Sonic Dismembrator (Thermo Fisher Scientific, Inc.; Waltham, Mass.). Proteins were separated on 4-12% Bis-Tris NuPAGE gels (Life Technologies Corporation) and transferred to nitrocellulose membranes. DNMT1, phos-Histone-H2AX(Ser139), total Histone-H2AX, cleaved-PARP, p21, p53, and alpha-tubulin were detected using the Li-Cor Odyssey imaging system (Li-Cor Biotechnology; Lincoln, Nebr.), following incubation with the appropriate primary and secondary antibodies. The phos-Histone-H2AX(Ser139), cleaved-PARP, and p21 antibodies were from Cell Signaling Technology, Inc. The p53 and total Histone-H2AX (C-20) antibodies were from Santa Cruz Biotechnology, Inc. (Santa Cruz, Calif.). The alpha-tubulin and DNMT1 antibodies were purchased from EMD Chemicals, Inc. (Gibbstown, N.J.) and Abcam, Inc. (Cambridge, Mass.), respectively. The goat anti-Rabbit IRDye 680, goat anti-Mouse IRDye 800CW, and donkey anti-Goat IRDye 800CW secondary antibodies were from Li-Cor Biotechnology.
(§2) Reduced DNMT1 levels were detected in these cell lines as early as 4 hours after drug treatment (FIG. 17).

[2] = tested on: DNMT1; assay: DNMT1 protein depletion, A549; format: cell-based; details: for DNMT1 protein levels: dose range
Method: as §1, §2

[3] = tested on: LINE-1 elements in A549 cells; assay: LINE-1 Methylation Assay, A549; format: cell-based; details: for DNA hypomethylation (LINE-1 methylation): 48 hours or 72 hours
Method: Genomic DNA was purified from cells using the DNeasy Blood and Tissue Kit (Qiagen; Valencia, Calif.), according to the manufacturer's instructions. DNA yield was quantitated with a NanoDrop 8000 spectrophotometer (Thermo Fisher Scientific, Inc.). DNAs (1 μg/sample) were submitted to EpigenDx (Worcester, Mass.) for bisulfate conversion and pyrosequencing of LINE-1 elements. Briefly, 1 μg of DNA was bisulfite-treated using the Zymo DNA Methylation Kit (Zymo Research; Orange, Calif.) and eluted in 10 μL volume. DNA eluate (1 μL) was used for PCR with biotinylated primers to the LINE-1 locus, converting the PCR product to single-stranded DNA templates. PCR products (each 10 μL) were sequenced by Pyrosequencing PSQ96 HS System (Biotage AB), following the manufacturer's instructions (Biotage; Kungsgatan, Sweden). The methylation status of each locus was analyzed individually as a T/C SNP using QCpG software (Biotage). Percent LINE-1 methylation represents the average percent methylation of four CpG sites in duplicate samples.
At the highest drug concentration tested (3 μM), LINE-1 methylation was less affected, possibly due to reduced drug incorporation as a result of inhibited cell proliferation.

[4] = tested on: NSCLC cell types; assay: Apoptosis (AnnexinV-FITC/7-AAD), summary; format: cell-based; details: summary of studies
Source text: (§3) For cell cycle distribution, cells were stained with the NIM-DAPI reagent (Beckman Coulter, Inc.; Fullerton, Calif.). For measurement of early- and late-apoptotic cell populations, cells were stained with AnnexinV-FITC and 7-AAD reagents (Beckman Coulter, Inc.). Samples were processed according to manufacturer's instructions and analyzed on a Cell Lab Quanta MPL flow cytometer (Beckman Coulter, Inc.). […] Data were also collected for untreated cells as control.

[5] = tested on: H1299 cells; assay: Cell cycle distribution (NIM-DAPI), H1299; format: cell-based
Source text: (§4) These studies examined the cell cycle distribution of NSCLC cells treated with AZA or DAC using NIM-DAPI analysis.
as §3

[6] = tested on: NSCLC cell lines; assay: Cell viability dose-response profiles, all cell lines; format: cell-based; details: 72 hours; dose range
Method: Certain NSCLC cell lines (H460, H1299, A549, and H1975) were purchased from American Type Culture Collection (ATCC; Manassas, Va.). The H23NSCLC cell line was obtained from the National Cancer Institute (NCI; Bethesda, Md.). Cell lines were cultured in their respective media, as recommended by ATCC and NCI. AZA was manufactured at Aptuit (Greenwich, Conn.) for Celgene (Summit, N.J.), while DAC was purchased from Sigma-Aldrich (St. Louis, Mo.). In all experiments, cells were seeded 24 hours before drug treatment and incubated at 37° C./5% CO2, For cell viability assays, H460, H1299, A549, H23, and H1975 cells were seeded in triplicate at 1×10^3, 1×10^3, 1×10^3, 4×10^3, and 4×10^3 cells per well, respectively, in 96-well plates, using 200 μL of medium per well. Fresh drug was added every 24 hours by replacing medium with drug-containing medium. […]
(§5) Cell viability was assessed using the CyQuant assay (Life Technologies Corporation; Carlsbad, Calif.). Fluorescence was measured with a spectrophotometer (Molecular Devices; Sunnyvale, Calif.), and EC50 values were calculated in Prism® version 5.01 (GraphPad Software, Inc.; La Jolla, Calif.), using results from three independent experiments.
The six data sets represent calculations of EC50 values from raw data using Prism®. The standard deviation among the three independent experiments was determined at each drug concentration. […]

[7] = tested on: H1299 cells; assay: Cell viability (CyQuant assay), H1299; format: cell-based; details: 72 hours; for HillSlope / LogIC50 / IC50: H1299 viability, best-fit value; for EC50 / IC50: Homo sapiens, NCI-H1299; for EC50: H1299, read-out: EC50 of effect on viability
Method: Certain NSCLC cell lines (H460, H1299, A549, and H1975) were purchased from American Type Culture Collection (ATCC; Manassas, Va.). The H23NSCLC cell line was obtained from the National Cancer Institute (NCI; Bethesda, Md.). Cell lines were cultured in their respective media, as recommended by ATCC and NCI. AZA was manufactured at Aptuit (Greenwich, Conn.) for Celgene (Summit, N.J.), while DAC was purchased from Sigma-Aldrich (St. Louis, Mo.). In all experiments, cells were seeded 24 hours before drug treatment and incubated at 37° C./5% CO2, For cell viability assays, H460, H1299, A549, H23, and H1975 cells were seeded in triplicate at 1×10^3, 1×10^3, 1×10^3, 4×10^3, and 4×10^3 cells per well, respectively, in 96-well plates, using 200 μL of medium per well. Fresh drug was added every 24 hours by replacing medium with drug-containing medium. For all other assays, cells were seeded at 0.6-1.2×10^5 cells per well, in 6-well plates, using 4 mL of medium per well, with fresh drug added directly to the medium every 24 hours.
as §5
The six data sets represent calculations of EC50 values from raw data using Prism®. The standard deviation among the three independent experiments was determined at each drug concentration. For some of the cell lines, Prism® was not able to calculate the EC50 for DAC. For those curves that an EC50 was available, the SE (Std. Error) was acceptable (SE of the logEC50 should be less than 0.5), meaning that the standard errors were not too large. The 95% Confidence Intervals for the EC50 were considered as a measure of error.

[8] = tested on: H1975 cells; assay: Cell cycle distribution (NIM-DAPI), H1975; format: cell-based; details: 72-hour treatment, 0.3-10 μM
Source text: as §4, §3

[9] = tested on: DNMT1; assay: DNMT1 protein depletion, H1299; format: cell-based; details: for DNMT1 protein levels: dose range
Method: as §1, §2

[10] = tested on: A549 cells; assay: Western analysis of DNA damage and apoptosis markers, A549; format: cell-based; details: for Induction of Histone H2AX phosphorylation (marker of DNA damage) / Induction of PARP cleavage (marker of apoptosis): 0.3-10 μM, 24 h to 72 h (3 days)
Method: These studies also examined apoptosis using an assay for PARP cleavage. Cells studied included H460, A549, and H1299 cells.
as §1

[11] = tested on: MDS, AML, CML, ALL, NHL; details: e.g. treatment of MDS, Aparicio et al. 2002; cited from earlier work
[12] = 0.3-10 μM, 24 h and 48 h (Example 5)

SMILES: Nc1ncn([C@@H]2O[C@H](CO)[C@@H](O)[C@H]2O)c(=O)n1 [AZA, 4-amino-1-β-D-ribofuranosyl-1,3,5-triazin-2(1H)-one]
- DNMT1 protein levels ([1]; 20 hours): significantly reduced
- DNMT1 protein levels ([2]; 20 hours): significantly reduced
- Concentration of peak hypomethylation (LINE-1) ([3]; 48 or 72 hours): 0.3-1 μM
- DNA hypomethylation (LINE-1 methylation) [3]: induced DNA hypomethylation; also recorded: caused a decrease in LINE-1 methylation
- Early- and late-apoptotic cell populations (AnnexinV/7-AAD) [4]: dramatic increase in early-apoptotic (AnnexinV+ 7-AAD−) and late-apoptotic (AnnexinV+ 7-AAD+) cells
- Cell cycle distribution (NIM DAPI) ([5]; 72-hour treatment, 0.3-10 μM): induced accumulation of cells in G2/M and Sub-G1
- Cell cycle distribution (NIM DAPI) ([5]; summary of studies): induced accumulation of cells in Sub-G1
- Viability profile at high doses [6]: cytotoxic activities at high doses
- HillSlope [7]: −1.138
- LogIC50 [7]: 0.7095
- EC50 [7]: 5.1 µM
- IC50 [7]: 5.12 µM
- Cell cycle distribution (NIM DAPI) [8]: decrease of cells in G0/G1 and accumulation of cells in G2/M and Sub-G1
- DNMT1 protein levels ([9]; 20 hours): significantly reduced
- Induction of Histone H2AX phosphorylation (marker of DNA damage) [10]: induced
- Induction of PARP cleavage (marker of apoptosis) [10]: induced
- Anti-tumor activity in clinical trials [11]: significant anti-tumor activity

SMILES: Nc1ncn([C@H]2C[C@H](O)[C@@H](CO)O2)c(=O)n1 [DAC, 5-aza-2′-deoxycytidine]
- DNMT1 depletion [1, 12]: able to cause DNMT1 depletion
- Relative potency in reducing DNMT1 levels ([1]; 20 hours): equipotent
- DNMT1 protein levels ([1]; 20 hours): significantly reduced
- DNMT1 depletion [2, 12]: able to cause DNMT1 depletion
- Relative potency in reducing DNMT1 levels ([2]; 20 hours): more potent than AZA
- Concentration of maximal reduction of DNMT1 levels ([2]; 20 hours, lowest concentration tested): 0.05 µM
- DNMT1 protein levels ([2]; 20 hours): significantly reduced
- Concentration of peak hypomethylation (LINE-1) ([3]; 48 or 72 hours): 0.1 μM
- Potency in decreasing LINE-1 methylation relative to AZA ([3]; 48 or 72 hours): 3- to 10 fold
- DNA hypomethylation (LINE-1 methylation) [3]: induced DNA hypomethylation; also recorded: caused a decrease in LINE-1 methylation
- Early- and late-apoptotic cell populations (AnnexinV/7-AAD) [4]: very slight increase in these cell populations
- Cell cycle distribution (NIM DAPI) ([5]; 48-hour treatment, 0.3-10 μM): induced accumulation of cells in G2/M
- Cell cycle distribution (NIM DAPI) ([5]; 72-hour treatment, 0.3-10 μM): induced accumulation of cells in G2/M and Sub-G1; also recorded: induced accumulation of cells in Sub-G1 while DAC also caused an increase of cells in G2/M
- Cell cycle distribution (NIM DAPI) ([5]; summary of studies): induced accumulation of cells in Sub-G1 while DAC also caused an increase of cells in G2/M
- Viability profile at high doses [6]: cytostatic activity at high doses
- HillSlope [7]: −0.4536
- LogIC50 [7]: 0.7153
- EC50 [7]: 5.2 µM
- IC50 [7]: 5.19 µM
- Cell cycle distribution (NIM DAPI) [8]: slight increases in G2/M and Sub-G1
- DNMT1 depletion ([9]; 0.3-10 μM, 48 h (Example 5)): able to cause DNMT1 depletion
- Relative potency in reducing DNMT1 levels ([9]; 20 hours): more potent than AZA
- DNMT1 protein levels ([9]; 20 hours): significantly reduced
- Induction of Histone H2AX phosphorylation (marker of DNA damage) [10]: did not have any effect and not
- Induction of PARP cleavage (marker of apoptosis) [10]: did not have any effect and not
- p21 expression ([10]; 24 h and 48 h): induce
- p53 expression ([10]; 24 h and 48 h): induce
- Induction of Histone H2AX phosphorylation ([10]; 6 days of treatment): lack of induction
- Induction of PARP cleavage ([10]; 6 days of treatment): lack of induction
- Anti-tumor activity in clinical trials [11]: significant anti-tumor activity
